Data: patent US10745370B2, “Farnesyl transferase inhibitors and uses thereof” (MACKAY MEMORIAL HOSPITAL, priority 2016, dated 2020)
Several values for one entry are separate records, joined by “and”; a condition that tells them apart may be missing. Identical values can stand only once. Entries after “also recorded” stand apart in the source; their conditions may differ. Values belong to the compound of their own block, whether it stands above or below them.

Experiments:
[1] = system: M2 macrophages; experiment: Cell marker expression on M2 macrophages, flow cytometry; assay type: cell-based, human; conditions: for CD14: M2 population after treatment: Table 5; for CD80: change in M2 population: Table 6; for CD80 expression on M2 macrophages: control 47.64%; for CD14 expression on M2 macrophages: control 55.66%; for CD206 expression on M2 macrophages: control 74.49%
Method: (§1) M1 differentiation of freshly isolated CD14^+ cells was induced by the addition of lipopolysaccharide (LPS), while M2 differentiation of freshly isolated CD14^+ cells was induced by the addition of IL-4. Then, the present compounds (e.g., Mib-5, 6, 7, 8, 9, or 10) were added at the indicated dosages. 6 days later, the population of the differentiated macrophages were then determined by cell viability analysis.
(§2) The expression of various types of cell markers, such as CD14, CD206, and CD80 expressed on the surface of macrophages, and CD1a, CD14, CD83, and HLA-DR expressed on the dendritic cells, were respectively detected by fluorescein isothiocyanate (FITC) and phycoerythrin (PE)-conjugated monoclonal antibodies in FACS caliber flowcytometer. Monoclonal antibodies used in this examples included anti-CD14 (IgG-FITC), anti-CD206 (IgG-FITC), anti-CD80-PE, anti-CD1a-PE, anti-CD83-PE and anti-human leukocyte antigen (HLA)-DR-PE. Results were analyzed by CellQuest software.

[2] = system: macrophages; experiment: Trypan blue exclusion test on macrophages; assay type: cell-based; conditions: trypan blue analysis, FIG. 2
Method: (§3) Mononuclear cells (MNCs) were separated from the peripheral blood of healthy donors obtained with written consent by use of Ficoll-Hypaque density centrifugation, followed by positive selection with magnetic anti-CD14 microbeads.
(§4) The isolated CD14^+ cells were cultivated in Minimum Essential Medium (MEM medium) supplemented with 10% fetal bovine serum (FBS), 100 ng/ml granulocyte-macrophage colony-stimulating factor (GM-CSF, Gentaur), and 50 ng/ml interleukin-4 (IL-4, R&D), and kept in an environment of 37° C. with 5% CO2/95% air.
(§5) To evaluate the effects of the present compound on dendritic cells, the CD14^+ cells were respectively treated with 10 μM of test compound (i.e., Mib-5, Mib-6, Mib-7, Mib-8, Mib-9, and Mib-10) on day 1. Then, on day 3, the cultured medium in each well was replenished by adding half the volume of the cultured medium containing the same treatment as indicated above. Then, on day 6, a cytokine cocktail containing IL-1, IL-6, and tumor necrosis factor-α (TNF-α) was added to induce maturation. On day 7, the differentiated dendritic cells were collected and subjected to further assays, including viability assay, morphology observation, and cell marker staining.
(§6) As to the effects of the present compound on macrophages, the CD14^+ cells were cultivated and treated as indicated above except the addition of cytokine cocktail on day 6. The macrophages were collected on day 6 and subjected to further assays, including viability assay, trypan blue exclusion test, morphology observation, cell marker staining, and phagocytotic activity analysis.
(§7) The dye exclusion test is used to determine the number of viable cells present in a cell suspension. […] In this test, the cells were first treated with a test compound (i.e., Mib-5, 6, 7, 8, 9 or 10) for a certain period of time (e.g., 72 hours), then the cells were harvested and re-suspended in suitable buffer solution. The cell suspension was then mixed with trypan blue dye and then visually examined to determine whether cells had taken up or excluded the dye. A viable cell will have a clear cytoplasm, whereas a nonviable cell will have a blue cytoplasm. The concentration required to reduce viability by 50% (IC50) after 72 hours was extrapolated from the dose-response curves by different concentrations of the test compound using a second-order polynomial regression model and analyzing with SigmaPlot Software (Systat Software Inc., San Jose, Calif.).

[3] = system: macrophages; experiment: Phagocytosis assay with fluorescent latex beads; assay type: cell-based, human; conditions: M1 and/or M2 populations, FIG. 6
Method: as §6
The phagocytic activity of macrophages was measured by using flow cytometric analysis. The green fluorescent latex beads (carboxylate-modified beads with diameter 2 μm) were suspended in PBS solution and added into macrophage culture for 2 hours with vortexa at 37° C. The macrophages were subjected to flow cytometry for measurement of fluorescent intensity

[4] = system: M1 macrophages; experiment: Differentiation analysis, cell viability of M1 macrophages; assay type: cell-based, human; conditions: for Cell viability of M1 macrophages: LPS-induced M1 differentiation, 6 days, control 100%
Method: as §1, with “analysis. The cell viability was measured by cell counting kit-8 (CCK-8, Sigma). The half maximal inhibitory concentrations (IC50) of the test compounds on macrophages or dendritic cells were calculated.” for “analysis.”

[5] = system: dendritic cells; experiment: Morphology of dendritic cells by Liu's staining; assay type: cell-based, human; conditions: 10 μM, seven days, FIG. 8
Method: as §3, §4, §5
(§8) Cells were transferred to a glass coverslide and covered with solution A (0.5 g of methylene blue and 1.7 g of Eosin yellow dissolved in 1,000 ml of ethanol). After 45 seconds, solution B (1.3 g of azure, 1.4 g of methylene blue, 23.38 g of Na2HPO4, 6.5 g of KH2PO4, dissolved in 1,000 ml of distilled water) was added in the proportion of 2 parts of B to 1 part of A. Mixed the solutions well by blowing the surface. The slide was left standing for 90 seconds and then washed off the staining solution rapidly by running water. The morphology of stained cells was then examined under microscope.
(§9) In this example, the effects of the present compounds on dendritic cells were investigated. Briefly, the dendritic cells were respectively treated with 10 μM of Mib-5, Mib-6, Mib-7, Mib-8, or Mib-10. Seven days later, the cells were harvested and subjected to analysis of morphology observation, cell viability, and/or cell marker expression.

[6] = system: M1 macrophages; experiment: Cell marker expression on M1 macrophages, flow cytometry; assay type: cell-based, human; conditions: for CD14: M1 population after treatment: Table 5; for CD206 expression on M1 macrophages: control 14.27%; for CD80 expression on M1 macrophages: control 71.34%; for CD14 expression on M1 macrophages: control 99.83%
Method: as §1, §2

[7] = system: macrophages; experiment: Cell marker expression on macrophages (total), flow cytometry; assay type: cell-based, human; conditions: for total expressed level of CD14: FIG. 3; for level of CD206: FIG. 5; for total level of CD80: compared with the control
Method: as §3, §4, §5, §6, §2

[8] = target: T1, rat PFTase (Rattus norvegicus, UniProt Q02293+Q04631); experiment: Inhibition of farnesyl transferase (fluorescence assay); assay type: biochemical; conditions: mean ± SD of three independent experiments
T1 construct: purchased Jena Biosciences
Method: The assay was carried out in 384-well microplates with a final volume of 20 μl by the method modified from the previous report (Long et al., 2009). Briefly, 10 nM of rat PFTase (Jena Biosciences, Jena, Germany) was incubated with the tested compound or DMSO (1%) for 15 min, and then the mixture was added in a solution (50 mM Tris-HCl, pH 7.5, 5 mM MgCl2, 5 mM DTT, 0.1 mM ZnCl2, 0.2% octyl-β-D-glucopyranoside (Sigma, St. Louis, Mo.), 10 μM PFTase substrate dansyl-Gly-Cys-Val-Leu-Ser-OH, and 10 μM farnesyl pyrophosphate (Sigma, St. Louis, Mo.)) to initiate the reaction. The reaction was incubated at 37° C. for 30 min, and the fluorescence was detected by a M5 plate reader (Molecular Devices, CA, USA) at 340 nm excitation and 505 nm emission.

[9] = system: macrophages; experiment: Morphology of macrophages (photographs, Liu's staining); assay type: cell-based, human; conditions: for cells exhibiting adhesive morphology: 10 μM, FIG. 1 panel A; for morphology of cells by Liu's staining compared with control cells: FIG. 1 panel C
Method: as §3, §4, §5, §6, §8

[10] = system: dendritic cells; experiment: Trypan blue exclusion analysis of dendritic cells; assay type: cell-based, human; conditions: 10 μM, seven days, FIG. 7
Method: as §3, §4, §5, §7, §9

[11] = system: dendritic cells; experiment: Cell marker expression on dendritic cells, flow cytometry; assay type: cell-based, human; conditions: 10 μM; for expression of CD1a, differentiation marker of dendritic cells: FIG. 9; for expression of CD83, maturation marker of dendritic cells: FIG. 10
Method: as §3, §4, §5, §2, §9

[12] = system: M2 macrophages; experiment: Differentiation analysis, cell viability of M2 macrophages; assay type: cell-based, human; conditions: for Cell viability of M2 macrophages: IL-4-induced M2 differentiation, 6 days, control 100%
Method: as §1, with “analysis. The cell viability was measured by cell counting kit-8 (CCK-8, Sigma). The half maximal inhibitory concentrations (IC50) of the test compounds on macrophages or dendritic cells were calculated.” for “analysis.”

IC50 [8]: ~28 µM and 27.9 µM
SMILES: COC1=CC(=O)[C@@]2(c3cc(=O)c4ccc(O)cc4o3)[C@H](CC=C(C)[C@@H]2C[C@]2(C)[C@@H](C(=O)O)CC=C3[C@H]2CCCC3(C)C)C1=O [Mib-10]
CD14: M2 population after treatment [1]: significant decrease
CD80: change in M2 population [1]: increase
CD80 expression on M2 macrophages [1]: 59.89%
CD14 expression on M2 macrophages [1]: 57.93%
CD206 expression on M2 macrophages [1]: 68.80%
cell viability / cytotoxicity toward macrophages [2]: did not adversely affect cell viability; also recorded: no significant cytotoxicity
phagocytic activity compared with control [3]: reduced
Cell viability of M1 macrophages [4]: 82.5%
change in M1 population of macrophages compared with control ([4]; Table 4): decrease
dendritic cell morphology compared with control group [5]: did not cause any significant changes
CD14: M1 population after treatment [6]: remained relatively unchanged
CD206 expression on M1 macrophages [6]: 15.17%
CD80 expression on M1 macrophages [6]: 84.46%
CD14 expression on M1 macrophages [6]: 99.10%
increase of total level of CD80 as compared with the control [7]: about 2 folds
total expressed level of CD14 [7]: not affected
level of CD206 [7]: increase
total level of CD80 [7]: increased
cells exhibiting adhesive morphology [9]: about 20%
morphology of cells by Liu's staining compared with control cells [9]: not significantly affected
levels of viable dendritic cells [10]: remained relatively unchanged
expression of CD1a, differentiation marker of dendritic cells [11]: not
expression of CD83, maturation marker of dendritic cells [11]: not affected
Cell viability of M2 macrophages [12]: 145.5%
increase of M2 population ([12]; compared with control, Table 4): about 40%

IC50 [8]: < 10 µM and 5.05 µM
SMILES: COC1=CC(=O)[C@@]2(c3cc(=O)c4c(O)cc(O)cc4o3)[C@H](CC=C(C)[C@@H]2C[C@]2(C)[C@@H](C(=O)O)CC=C3[C@H]2CCCC3(C)C)C1=O [Mib-8]
CD14: M2 population after treatment [1]: significant decrease
CD80: change in M2 population [1]: increase
CD80 expression on M2 macrophages [1]: 56.66%
CD14 expression on M2 macrophages [1]: 62.34%
CD206 expression on M2 macrophages [1]: 51.05%
cell viability / cytotoxicity toward macrophages [2]: did not adversely affect cell viability; also recorded: no significant cytotoxicity
phagocytic activity compared with control [3]: reduced
Cell viability of M1 macrophages [4]: 79.4%
reduction in the M1 population ([4]; compared with control, Table 4): about 20%
dendritic cell morphology compared with control group [5]: did not cause any significant changes
CD14: M1 population after treatment [6]: remained relatively unchanged
CD80: change in M1 population ([6]; Table 6): reduction
CD206: change in M1 ([6]; Table 7): significant decrease
CD206 expression on M1 macrophages [6]: 11.98%
CD80 expression on M1 macrophages [6]: 60.16%
CD14 expression on M1 macrophages [6]: 99.73%
increase of total level of CD80 as compared with the control [7]: about 2 folds
total expressed level of CD14 [7]: not affected
level of CD206 [7]: increase
total level of CD80 [7]: increased
cells exhibiting adhesive morphology [9]: about 20%
morphology of cells by Liu's staining compared with control cells [9]: not significantly affected
levels of viable dendritic cells [10]: remained relatively unchanged
expression of CD1a, differentiation marker of dendritic cells [11]: not
expression of CD83, maturation marker of dendritic cells [11]: not affected
Cell viability of M2 macrophages [12]: 100%
change in M2 population of macrophages compared with control ([12]; Table 4): no effect
